In the NIST ThermoML archive (doi:10.1021/acs.jced.5b00627):

Assays:
[1] = for Normal melting temperature: Crystal, DTA; for viscosity: 100 kPa, Capillary tube (Ostwald / Ubbelohde) method; for viscosity / speed of sound / mass density: Liquid; for speed of sound / mass density: 101.33 kPa; for speed of sound: Sing-around technique in a fixed-path interferometer; for mass density: Vibrating tube method
[2] = mn = molality of the nth substance listed, in mol/kg; conditions: 100 kPa, Liquid; for viscosity: Capillary tube (Ostwald / Ubbelohde) method; for speed of sound: Frequency=3 MHz, Sing-around technique in a fixed-path interferometer; for mass density: Vibrating tube method

COc1cc(-c2cc(-c3ccc(Cl)cc3)[nH]c(=O)c2C#N)ccc1O
Conditions | Normal melting temperature [°C]
[1] | 328.34

COc1cc(-c2cc(-c3ccc(O)cc3)[nH]c(=O)c2C#N)ccc1O
Conditions | Normal melting temperature [°C]
[1] | 326.33

COc1cc(-c2cc(-c3ccccc3)[nH]c(=O)c2C#N)ccc1O
Conditions | Normal melting temperature [°C]
[1] | 343.12

COc1cc(-c2cc(-c3ccccc3O)[nH]c(=O)c2C#N)ccc1O
Conditions | Normal melting temperature [°C]
[1] | 234.49

COc1cc(-c2cc(-c3ccc(Cl)cc3)[nH]c(=O)c2C#N)ccc1O + C[S+](C)[O-]
[2]
Conditions | mass density, 298.15 K [kg/m3] | mass density, 308.15 K [kg/m3] | mass density, 318.15 K [kg/m3] | speed of sound, 298.15 K [m/s] | speed of sound, 308.15 K [m/s] | speed of sound, 318.15 K [m/s] | viscosity, 298.15 K [mPa·s] | viscosity, 308.15 K [mPa·s] | viscosity, 318.15 K [mPa·s]
m1 = 0.01 | 1096.42 | 1086.43 | 1076.43 | 1486.1 | 1452.4 | 1418.9 | 1.954 | 1.545 | 1.264
m1 = 0.02 | 1097.3 | 1087.47 | 1077.19 | 1487.2 | 1453.4 | 1419.9 | 1.993 | 1.571 | 1.294
m1 = 0.04 | 1098.53 | 1088.83 | 1078.52 | 1488.4 | 1454.7 | 1421 | 2.037 | 1.614 | 1.324
m1 = 0.06 | 1099.79 | 1089.98 | 1079.89 | 1489.6 | 1455.9 | 1422.2 | 2.081 | 1.655 | 1.355
m1 = 0.08 | 1100.99 | 1091.08 | 1080.99 | 1490.5 | 1456.7 | 1423.2 | 2.129 | 1.699 | 1.391
m1 = 0.1 | 1102.29 | 1092.32 | 1082.35 | 1491.1 | 1457.6 | 1424.5 | 2.172 | 1.73 | 1.427

COc1cc(-c2cc(-c3ccc(O)cc3)[nH]c(=O)c2C#N)ccc1O + C[S+](C)[O-]
[2]
Conditions | mass density, 298.15 K [kg/m3] | mass density, 308.15 K [kg/m3] | mass density, 318.15 K [kg/m3] | speed of sound, 298.15 K [m/s] | speed of sound, 308.15 K [m/s] | speed of sound, 318.15 K [m/s] | viscosity, 298.15 K [mPa·s] | viscosity, 308.15 K [mPa·s] | viscosity, 318.15 K [mPa·s]
m1 = 0.01 | 1096.12 | 1086.44 | 1076.45 | 1486.3 | 1452.4 | 1419 | 1.885 | 1.544 | 1.265
m1 = 0.02 | 1097.17 | 1087.19 | 1077.22 | 1487.3 | 1453.2 | 1420.1 | 1.963 | 1.576 | 1.312
m1 = 0.04 | 1098.34 | 1088.48 | 1078.49 | 1488.9 | 1454.5 | 1421.5 | 2.06 | 1.623 | 1.364
m1 = 0.06 | 1099.52 | 1089.69 | 1079.59 | 1490.6 | 1455.6 | 1422.7 | 2.144 | 1.663 | 1.392
m1 = 0.08 | 1100.69 | 1090.67 | 1080.74 | 1492 | 1456.5 | 1424 | 2.243 | 1.704 | 1.421
m1 = 0.1 | 1101.86 | 1091.98 | 1081.94 | 1493.7 | 1457.4 | 1425.1 | 2.323 | 1.729 | 1.462

COc1cc(-c2cc(-c3ccccc3)[nH]c(=O)c2C#N)ccc1O + C[S+](C)[O-]
[2]
Conditions | mass density, 298.15 K [kg/m3] | mass density, 308.15 K [kg/m3] | mass density, 318.15 K [kg/m3] | speed of sound, 298.15 K [m/s] | speed of sound, 308.15 K [m/s] | speed of sound, 318.15 K [m/s] | viscosity, 298.15 K [mPa·s] | viscosity, 308.15 K [mPa·s] | viscosity, 318.15 K [mPa·s]
m1 = 0.01 | 1096.02 | 1086.02 | 1076.08 | 1485.9 | 1451.9 | 1418.1 | 1.876 | 1.525 | 1.242
m1 = 0.02 | 1096.69 | 1086.78 | 1076.69 | 1486.8 | 1452.8 | 1419.1 | 1.916 | 1.562 | 1.276
m1 = 0.04 | 1097.59 | 1087.93 | 1077.85 | 1488 | 1453.9 | 1420.5 | 1.976 | 1.603 | 1.319
m1 = 0.06 | 1098.59 | 1088.74 | 1078.84 | 1489.1 | 1455 | 1421.6 | 2.02 | 1.638 | 1.345
m1 = 0.08 | 1099.69 | 1089.59 | 1079.75 | 1490.3 | 1456 | 1422.6 | 2.063 | 1.668 | 1.37
m1 = 0.1 | 1100.84 | 1090.64 | 1080.75 | 1491 | 1456.8 | 1423.7 | 2.107 | 1.697 | 1.41

COc1cc(-c2cc(-c3ccccc3O)[nH]c(=O)c2C#N)ccc1O + C[S+](C)[O-]
[2]
Conditions | mass density, 298.15 K [kg/m3] | mass density, 308.15 K [kg/m3] | mass density, 318.15 K [kg/m3] | speed of sound, 298.15 K [m/s] | speed of sound, 308.15 K [m/s] | speed of sound, 318.15 K [m/s] | viscosity, 298.15 K [mPa·s] | viscosity, 308.15 K [mPa·s] | viscosity, 318.15 K [mPa·s]
m1 = 0.01 | 1096.09 | 1086.41 | 1076.4 | 1486 | 1452.1 | 1418.6 | 1.88 | 1.535 | 1.247
m1 = 0.02 | 1097.16 | 1087.16 | 1077.18 | 1487 | 1453.1 | 1419.5 | 1.958 | 1.57 | 1.287
m1 = 0.04 | 1098.32 | 1088.47 | 1078.47 | 1488.6 | 1454.2 | 1420.8 | 2.037 | 1.608 | 1.327
m1 = 0.06 | 1099.5 | 1089.66 | 1079.56 | 1490.2 | 1455.2 | 1422 | 2.124 | 1.645 | 1.359
m1 = 0.08 | 1100.68 | 1090.65 | 1080.71 | 1491.7 | 1456.3 | 1423 | 2.201 | 1.685 | 1.399
m1 = 0.1 | 1101.83 | 1091.96 | 1081.9 | 1493.5 | 1457 | 1424.3 | 2.301 | 1.716 | 1.458

C[S+](C)[O-] [dimethyl sulfoxide]
[1]
Conditions | mass density [kg/m3] | speed of sound [m/s] | viscosity [mPa·s]
298.15 K | 1095.28 | 1484.8 | 1.814
308.15 K | 1085.23 | 1450.9 | 1.472
318.15 K | 1075.19 | 1417.4 | 1.176

C[S+](C)[O-] [dimethyl sulfoxide] + COc1cc(-c2cc(-c3ccc(Cl)cc3)[nH]c(=O)c2C#N)ccc1O
[2], m2 = 0
Conditions | mass density [kg/m3] | speed of sound [m/s] | viscosity [mPa·s]
298.15 K | 1095.28 | 1484.8 | 1.814
308.15 K | 1085.23 | 1450.9 | 1.472
318.15 K | 1075.19 | 1417.4 | 1.176

C[S+](C)[O-] [dimethyl sulfoxide] + COc1cc(-c2cc(-c3ccc(O)cc3)[nH]c(=O)c2C#N)ccc1O
[2], m2 = 0
Conditions | mass density [kg/m3] | speed of sound [m/s] | viscosity [mPa·s]
298.15 K | 1095.28 | 1484.8 | 1.814
308.15 K | 1085.23 | 1450.9 | 1.472
318.15 K | 1075.19 | 1417.4 | 1.176

C[S+](C)[O-] [dimethyl sulfoxide] + COc1cc(-c2cc(-c3ccccc3)[nH]c(=O)c2C#N)ccc1O
[2], m2 = 0
Conditions | mass density [kg/m3] | speed of sound [m/s] | viscosity [mPa·s]
298.15 K | 1095.28 | 1484.8 | 1.814
308.15 K | 1085.23 | 1450.9 | 1.472
318.15 K | 1075.19 | 1417.4 | 1.176

C[S+](C)[O-] [dimethyl sulfoxide] + COc1cc(-c2cc(-c3ccccc3O)[nH]c(=O)c2C#N)ccc1O
[2], m2 = 0
Conditions | mass density [kg/m3] | speed of sound [m/s] | viscosity [mPa·s]
298.15 K | 1095.28 | 1484.8 | 1.814
308.15 K | 1085.23 | 1450.9 | 1.472
318.15 K | 1075.19 | 1417.4 | 1.176
